This is an account of results in ChEMBL document CHEMBL5729393, “Inhibitors of blood coagulation factor XIII” (2022).

Where a SMILES comes first, the peptide text is derived from it. [ ]: non-standard residue; d: D form. The star is where a group is joined. ξ: configuration not given here. Nle(5E-ene,6-CO2Et) = CCOC(=O)/C=C/CC[C@H](N)C(=O)O; Oic(3aξ,7aξ) = O=C(O)[C@@H]1CC2CCCCC2N1; Cbz = O=C(OCc1ccccc1)*

This experiment concerns the target T1, Coagulation factor XIII A chain (Homo sapiens, UniProt P00488).
T1 sequence (P00488 whole entry): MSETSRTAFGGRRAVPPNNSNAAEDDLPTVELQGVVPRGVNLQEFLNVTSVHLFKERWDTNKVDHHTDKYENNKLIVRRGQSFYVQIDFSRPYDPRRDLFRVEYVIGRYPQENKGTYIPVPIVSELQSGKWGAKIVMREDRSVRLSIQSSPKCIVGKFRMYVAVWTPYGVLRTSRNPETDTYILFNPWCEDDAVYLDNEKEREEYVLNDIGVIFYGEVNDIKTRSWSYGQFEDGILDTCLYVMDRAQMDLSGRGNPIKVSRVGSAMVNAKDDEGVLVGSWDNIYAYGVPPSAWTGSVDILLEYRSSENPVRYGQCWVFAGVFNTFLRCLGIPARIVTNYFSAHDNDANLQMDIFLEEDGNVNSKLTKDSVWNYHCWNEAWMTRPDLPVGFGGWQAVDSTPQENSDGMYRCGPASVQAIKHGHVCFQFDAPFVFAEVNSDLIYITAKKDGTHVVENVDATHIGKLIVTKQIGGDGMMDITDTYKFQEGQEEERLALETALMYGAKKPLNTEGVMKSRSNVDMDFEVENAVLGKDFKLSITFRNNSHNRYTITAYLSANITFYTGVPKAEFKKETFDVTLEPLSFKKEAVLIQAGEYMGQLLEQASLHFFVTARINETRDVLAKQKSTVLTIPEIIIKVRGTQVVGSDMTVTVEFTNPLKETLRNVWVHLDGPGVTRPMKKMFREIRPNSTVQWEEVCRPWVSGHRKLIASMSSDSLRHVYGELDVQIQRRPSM
The experiment is described as follows: All measurements were performed in triplicate.

As a reminder, the IC50 is the concentration that gives 50% inhibition. Turning to `CCOC(=O)/C=C/CC[C@H](NC(=O)OCc1ccccc1)C(=O)N[C@H](C(=O)N1C2CCCCC2C[C@H]1C(=O)N[C@@H](CC(C)C)C(N)=O)C(C)C` (stereo partly drawn) (Cbz-[Nle(5E-ene,6-CO2Et)]V[Oic(3aξ,7aξ)]L-NH2), the concentration for half-maximal inhibition (IC50) is over 10 µM.
